Like-named read-outs stand apart in the source and are kept apart here.
Key:
HUVECs [1] = assay: Tube formation (tubulogenesis) assay in HUVECs, 18 h; format: cell-based, human; details: Homo sapiens, HUVEC, 18 h; for activity at 0.1 µM: 0.10 µM
Outline: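 HUVECs (passage 1–5) seeded on reduced-growth-factor basement membrane and exposed to compounds overnight at 37°C, 5% CO2, in 2× maintenance medium with 12.5 ng/mL VEGF; 0.5% DMSO vehicle. Calcein AM-stained tube networks imaged and analysed; vehicle-normalized readouts fit to four-parameter logistic, POD set at one SD of vehicle means.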

HUVECs [2] = assay: High-content imaging cytotoxicity in HUVECs, 24 h; format: cell-based, human; details: Homo sapiens, HUVEC, 24 h; for viability at 0.01 µM / activity at 0.01 µM / viability at 0.1 µM / activity at 0.1 µM / viability at 1 µM / activity at 1 µM / viability at 10 µM / activity at 10 µM / viability at 100 µM / activity at 100 µM: 0.00 µM = 100.00; for viability at 0.1 µM / activity at 0.1 µM: 0.10 µM
Outline: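 HUVECs (passages 1–5) grown to monolayer over 3–5 d, then exposed 24 h at 37°C, 5% CO2; stained with Hoechst 33342, MitoTracker Orange and calcein AM and imaged at 10×. Readouts normalized to 0.5% DMSO vehicle, four-parameter logistic fit; POD at one-SD cutoff, 100μM assigned when no response.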

[3] = HUVECs, 0.00 µM = 100.00, read-out: huvec.mtl.18hr
[4] = HUVECs, 0.00 µM = 100.00, read-out: huvec.tlps.18hr
[5] = HUVECs, 0.00 µM = 100.00, read-out: huvec.tta.18hr
[6] = HUVECs, 0.00 µM = 100.00, read-out: huvec.ttl.18hr
[7] = HUVECs, 24 hr, read-out: huvec.cyto.24hr
[8] = HUVECs, 24 hr, read-out: huvec.mito.24hr
[9] = HUVECs, 24 hr, read-out: huvec.mitoint.24hr
[10] = HUVECs, 24 hr, read-out: huvec.nma.24hr
[11] = HUVECs, 24 hrs, read-out: huvec.tc.24hrs

Molecule `Clc1ccc(-c2ccccc2)cc1` [PCB3] has an activity at 0.01 µM (HUVECs [1]; [3]) of 96.2%, an activity at 0.01 µM (HUVECs [1]; [4]) of 59.5% and an activity at 0.01 µM (HUVECs [1]; [5]) of 68%. It also gave an activity at 0.01 µM (HUVECs [1]; [6]) of 71.6%, an activity at 0.1 µM (HUVECs [1]; [3]) of 97.7% and an activity at 0.1 µM (HUVECs [1]; [4]) of 91.8%. For the same molecule, the activity at 0.1 µM (HUVECs [1]; [5]) was 96.2%, the activity at 0.1 µM (HUVECs [1]; [6]) was 104% and the activity at 1 µM (HUVECs [1]; [3]) was 87%. For the same molecule, the activity at 1 µM (HUVECs [1]; [4]) was 74.7%, the activity at 1 µM (HUVECs [1]; [5]) was 76.6% and the activity at 1 µM (HUVECs [1]; [6]) was 81.5%. For the same molecule, the activity at 10 µM (HUVECs [1]; [3]) was 96.7%, the activity at 10 µM (HUVECs [1]; [4]) was 74.2% and the activity at 10 µM (HUVECs [1]; [5]) was 62%. The activity at 10 µM (HUVECs [1]; [6]) was 66.4%, the activity at 100 µM (HUVECs [1]; [3]) was 70.8% and the activity at 100 µM (HUVECs [1]; [4]) was 39.1%. For the same molecule, the activity at 100 µM (HUVECs [1]; [5]) was 26%, the activity at 100 µM (HUVECs [1]; [6]) was 28% and the minimal effective concentration (HUVECs [1]; HUVECs, top concentration 100.00 µM, read-out: huvec.mtl.18hr POD) was 25.3 µM. For the same molecule, the minimal effective concentration (HUVECs [1]; HUVECs, top concentration 100.00 µM, read-out: huvec.tlps.18hr POD) was 100 µM, the minimal effective concentration (HUVECs [1]; HUVECs, top concentration 100.00 µM, read-out: huvec.tta.18hr POD) was 0.67 µM and the minimal effective concentration (HUVECs [1]; HUVECs, top concentration 100.00 µM, read-out: huvec.ttl.18hr POD) was 0.7 µM. For the same molecule, the viability at 0.01 µM (HUVECs [2]; [7]) was 83.5%, the activity at 0.01 µM (HUVECs [2]; [8]) was 83.3% and the activity at 0.01 µM (HUVECs [2]; [9]) was 93.5%. It also gave an activity at 0.01 µM (HUVECs [2]; [10]) of 94.7%, a viability at 0.1 µM (HUVECs [2]; [7]) of 87.1% and an activity at 0.1 µM (HUVECs [2]; [8]) of 86.7%. The activity at 0.1 µM (HUVECs [2]; [9]) was 118%, the activity at 0.1 µM (HUVECs [2]; [10]) was 93% and the viability at 1 µM (HUVECs [2]; [7]) was 73.5%. The activity at 1 µM (HUVECs [2]; [8]) was 72.5%, the activity at 1 µM (HUVECs [2]; [9]) was 97.5% and the activity at 1 µM (HUVECs [2]; [10]) was 93.1%. The viability at 10 µM (HUVECs [2]; [7]) was 87.9%, the activity at 10 µM (HUVECs [2]; [8]) was 85.4% and the activity at 10 µM (HUVECs [2]; [9]) was 76%. For the same molecule, the activity at 10 µM (HUVECs [2]; [10]) was 85.2%, the viability at 100 µM (HUVECs [2]; [7]) was 56% and the activity at 100 µM (HUVECs [2]; [8]) was 44.6%. For the same molecule, the activity at 100 µM (HUVECs [2]; [9]) was 51%, the activity at 100 µM (HUVECs [2]; [10]) was 71% and the minimal effective concentration (HUVECs [2]; HUVECs, 24 hr, top concentration 100.00 µM, read-out: huvec.cyto.24hr POD) was 100 µM. It also gave a minimal effective concentration (HUVECs [2]; HUVECs, 24 hr, top concentration 100.00 µM, read-out: huvec.mito.24hr POD) of 100 µM, a minimal effective concentration (HUVECs [2]; HUVECs, 24 hr, top concentration 100.00 µM, read-out: huvec.mitoint.24hr POD) of 100 µM and a minimal effective concentration (HUVECs [2]; HUVECs, 24 hr, top concentration 100.00 µM, read-out: huvec.nma.24hr POD) of 100 µM. For the same molecule, the viability at 0.01 µM (HUVECs [2]; [11]) was 83.5%, the viability at 0.1 µM (HUVECs [2]; [11]) was 87.1% and the viability at 1 µM (HUVECs [2]; [11]) was 73.7%. For the same molecule, the viability at 10 µM (HUVECs [2]; [11]) was 88%, the viability at 100 µM (HUVECs [2]; [11]) was 56.1% and the minimal effective concentration (HUVECs [2]; HUVECs, 24 hrs, top concentration 100.00 µM, read-out: huvec.tc.24hrs POD) was 100 µM.

`Oc1cc(Cl)cc(-c2cccc(Cl)c2)c1` [5-OH-PCB 11] showed a minimal effective concentration (HUVECs [1]; tube formation mtl, read-out: POD huvec.mtl.18hr) of 6.98 µM, a minimal effective concentration (HUVECs [1]; tube formation tlps, read-out: POD huvec.tlps.18hr) of 100 µM and a minimal effective concentration (HUVECs [1]; tube formation tta, read-out: POD huvec.tta.18hr) of 100 µM. It also gave a minimal effective concentration (HUVECs [1]; tube formation ttl, read-out: POD huvec.ttl.18hr) of 32.7 µM, a minimal effective concentration (HUVECs [2]; cyto, 24 hr, read-out: POD huvec.cyto.24hr) of 0.95 µM and a minimal effective concentration (HUVECs [2]; mito, 24 hr, read-out: POD huvec.mito.24hr) of 0.84 µM. The minimal effective concentration (HUVECs [2]; mitoint, 24 hr, read-out: POD huvec.mitoint.24hr) was 3.3 µM, the minimal effective concentration (HUVECs [2]; nma, 24 hr, read-out: POD huvec.nma.24hr) was 1.22 µM and the minimal effective concentration (HUVECs [2]; tc, 24 hr, read-out: POD huvec.tc.24hr) was 0.95 µM.

Reference: PMC7377239, “Cardiovascular Effects of Polychlorinated Biphenyls and Their Major Metabolites” (Environmental Health Perspectives, 2020)
